{"source": "patent US10179116B2", "about": "“Methods, compositions, and kits for treating pain and pruritis” (President and Fellows of Harvard College, priority 2006, dated 2019)", "key": {"[1]": {"assay": "Sciatic nerve injection, thermal (radiant heat) response latency", "assay_type": "in vivo, rat", "settings": "QX-314 0.2%, 100 μL, capsaicin 0.5 μg/μL, 100 μL (for 30 min)", "procedure": "(§1) Motor effects were scored according to a scale of 0 (no effect; normal gait and limb placement), 1 (limb movement but with abnormal limb placement and movement) or 2 (complete loss of limb movement). […] For co-application of QX-314 and capsaicin into the para-sciatic nerve region, we injected QX-314 first, followed 10 minutes later by capsaicin, with the idea that QX-314 would be present extracellularly and ready to enter TRPV1 channels as soon as they were activated.\n(§2) For sciatic nerve injections, animals were first habituated to handling for 10 days. Lidocaine (0.2% or 2%, 100 μL); QX-314 (0.2%, 100 μL) alone; capsaicin (50 μg in 100 μL) alone, or QX-314 followed by capsaicin (10 minutes interval) were injected into the area of sciatic nerve below the hip joint. Mechanical and thermal thresholds were determined using von Frey filaments and radiant heat. […] Walking, climbing, walking on the rod and placing reflex were examined. […] All experiments were done with the experimenter blinded."}, "[2]": {"tested_on": "voltage-dependent sodium channels", "assay": "Whole-cell voltage clamp of sodium current in small capsaicin-sensitive DRG neurons", "assay_type": "cell-based, rat", "settings": "n=25", "procedure": "We recorded current through voltage-dependent sodium channels using whole-cell voltage clamp recordings from adult rat DRG neurons. To select for nociceptors, we recorded from small (24±5 μm; n=25) neurons and tested the neurons for the expression of TRPV1 receptors by a short (1-sec) application of 1 μM capsaicin. In 25/25 of small neurons tested, capsaicin produced a prolonged (10±3 sec) inward current (FIG. 1A, upper panel), consistent with the neurons being nociceptors. Sodium currents were elicited by depolarizing steps from a holding potential of −70 mV.\n(§3) Dorsal root ganglia from 6-8 week old Sprague-Dawley rats were removed and placed into […] containing 1% penicillin—streptomycin (Sigma), then treated for 90 minutes with 5 mg/ml collagenase, 1 mg/ml Dispase II (Roche, Indianapolis, Ind.) and for 7 minutes with 0.25% trypsin, followed by addition of 2.5% trypsin inhibitor. Cells were triturated in the presence of […] (50 U), centrifuged through 15% BSA (Sigma), resuspended in 1 ml Neurobasal medium (Sigma), 10 μM AraC, NGF (50 ng/ml) and GDNF (2 ng/ml) and plated onto poly-lysine (500 μg/ml) and laminin (5 mg/ml) coated 35 mm tissue culture dishes (Becton Dickinson) at 8000-9000 per well. Cultures were incubated at 37° C., 5% carbon dioxide. Recordings were made within 48 hours after plating. […]"}, "[3]": {"assay": "Intraplantar injection, mechanical threshold for paw withdrawal (von Frey hairs)", "settings": "QX-314 10 μL of 2%, capsaicin 10 μg/10 μL (15 and 30 minutes), or together (15 minutes)", "description": "(§4) We next examined if the combination of capsaicin and QX-314 can reduce pain behavior in vivo.\n(§5) For intraplantar injections, rats were first habituated to handling and tests performed with the experimenter blind to the treatment. Intraplantar injections of vehicle (20% ethanol, 5% Tween 20 in saline, 10 μL) capsaicin (1 μg/μL), QX-314 (2%) or mixture of capsaicin and QX-314 into the left hindpaw were made and mechanical and thermal sensitivities determined using von Frey hairs and radiant heat respectively."}, "TRPV1 receptors [4]": {"tested_on": "TRPV1 receptors", "assay": "Capsaicin-evoked inward current in large DRG neurons", "assay_type": "cell-based, rat", "settings": "soma diameter >40 μm; 10 of 10", "description": "Dorsal root ganglia from 6-8 week old Sprague-Dawley rats were removed and placed into Dulbecco's Minimum Essential Medium containing 1% penicillin—streptomycin (Sigma), then treated for 90 minutes with 5 mg/ml collagenase, 1 mg/ml Dispase II (Roche, Indianapolis, Ind.) and for 7 minutes with 0.25% trypsin, followed by addition of 2.5% trypsin inhibitor. Cells were triturated in the presence of DNAase I inhibitor (50 U), centrifuged through 15% BSA (Sigma), resuspended in 1 ml Neurobasal medium (Sigma), 10 μM AraC, NGF (50 ng/ml) and GDNF (2 ng/ml) and plated onto poly-lysine (500 μg/ml) and laminin (5 mg/ml) coated 35 mm tissue culture dishes (Becton Dickinson) at 8000-9000 per well. Cultures were incubated at 37° C., 5% carbon dioxide. Recordings were made within 48 hours after plating. Average size of small neurons chosen as likely nociceptors was 23±6 μm (n=50) and that of large neurons was 48±8 μm (n=10).\n(§6) Whole-cell voltage-clamp or current-clamp recordings were made using an Axopatch 200A amplifier (Axon Instruments, Union City, Calif.) and patch pipettes with resistances of 1-2 MΩ. […]"}, "[5]": {"assay": "Intraplantar injection, thermal (radiant heat) response latency", "assay_type": "in vivo, rat", "settings": "QX-314 at 30 min, capsaicin at 15 and 30 min, together at 2 hours, heat applied for 25 seconds", "procedure": "Similar effects were seen examining sensitivity to a standardized noxious radiant heat stimulus. […] This effect remained for 4 hours after the injection (FIG. 3B)."}, "[6]": {"assay": "Intraplantar injection, spontaneous flinching", "settings": "first 5 min after intraplantar injection", "description": "as §4, §5"}, "[7]": {"tested_on": "small diameter DRG neurons", "assay": "Current clamp, action potential generation in small DRG neurons", "assay_type": "cell-based, rat", "settings": "QX-314 5 mM, capsaicin 1 μM, alone or co-applied", "description": "We also examined the effect of co-applied QX-314 and capsaicin in current clamp using physiological internal and external solutions.\nCurrent clamp recordings were made using the fast current clamp mode of the Axopatch 200A amplifier Pipette solution was 135 mM K gluconate; 2 mM MgCl2; 6 mM KCl; 10 mM HEPES; 5 mM Mg ATP; 0.5 mM Li2GTP; (pH=7.4 with KOH). External solution was 145 mM NaCl; 5 mM KCl; 1 mM MgCl2; 2 mM CaCl210 mM HEPES; 10 mM glucose; (pH adjusted to 7.4 with NaOH). Membrane potential was corrected for a liquid junction potential of −15 mV.\nCommand protocols were generated and data digitized using a Digidata 1200 A/D interface with pCLAMP 8.2 software (Axon Instruments, Union City, Calif.). Voltage-clamp current records were low pass filtered at 2 kHz and current clamp recordings at 10 kHz (−3 dB, 4 pole Bessel filter).\nQX-314 (5 mM), capsaicin (1 μM or 500 nM), or their combination was applied using custom-designed multibarrel fast drug delivery system placed about 200-250 μm from the neuron. Solution exchange was complete in less than a second."}, "TRPV1 receptors [8]": {"molecular_target": "T1, TRPV1 receptors (Rattus norvegicus, UniProt O35433)", "T1 construct": "Dorsal root ganglia from 6-8 week old Sprague-Dawley rats were removed; endogenous in cells; host or cells: primary cultured DRG neurons from 6-8 week old Sprague-Dawley rats", "T1 sequence (O35433 whole entry)": "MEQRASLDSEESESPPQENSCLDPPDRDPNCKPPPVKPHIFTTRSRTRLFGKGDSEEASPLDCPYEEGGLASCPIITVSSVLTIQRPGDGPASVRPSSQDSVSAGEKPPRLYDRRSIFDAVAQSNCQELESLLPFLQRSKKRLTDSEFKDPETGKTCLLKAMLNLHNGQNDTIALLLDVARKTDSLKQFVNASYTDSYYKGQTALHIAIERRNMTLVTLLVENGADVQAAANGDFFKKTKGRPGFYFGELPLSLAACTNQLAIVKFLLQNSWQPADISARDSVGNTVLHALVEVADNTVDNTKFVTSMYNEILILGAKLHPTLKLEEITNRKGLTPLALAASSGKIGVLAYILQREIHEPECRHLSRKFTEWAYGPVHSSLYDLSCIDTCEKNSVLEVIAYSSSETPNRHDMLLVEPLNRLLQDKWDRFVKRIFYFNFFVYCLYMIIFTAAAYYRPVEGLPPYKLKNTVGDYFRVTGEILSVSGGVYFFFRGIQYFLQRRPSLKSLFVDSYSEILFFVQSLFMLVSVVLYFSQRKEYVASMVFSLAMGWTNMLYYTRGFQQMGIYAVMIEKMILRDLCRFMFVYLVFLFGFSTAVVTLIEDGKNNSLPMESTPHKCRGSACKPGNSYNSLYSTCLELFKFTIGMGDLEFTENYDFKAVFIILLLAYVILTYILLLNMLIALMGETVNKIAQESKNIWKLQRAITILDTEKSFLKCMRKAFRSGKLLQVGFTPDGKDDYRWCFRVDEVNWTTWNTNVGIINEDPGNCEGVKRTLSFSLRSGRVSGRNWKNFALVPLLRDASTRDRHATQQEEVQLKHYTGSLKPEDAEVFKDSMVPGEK", "assay": "Capsaicin-evoked inward current in small DRG neurons (test for TRPV1 expression)", "assay_type": "cell-based", "settings": "1-sec application of 1 μM capsaicin", "description": "We recorded current through voltage-dependent sodium channels using whole-cell voltage clamp recordings from adult rat DRG neurons. To select for nociceptors, we recorded from small (24±5 μm; n=25) neurons and tested the neurons for the expression of TRPV1 receptors by a short (1-sec) application of 1 μM capsaicin. […] Sodium currents were elicited by depolarizing steps from a holding potential of −70 mV.\nDorsal root ganglia from 6-8 week old Sprague-Dawley rats were removed and placed into Dulbecco's Minimum Essential Medium containing 1% penicillin—streptomycin (Sigma), then treated for 90 minutes with 5 mg/ml collagenase, 1 mg/ml Dispase II (Roche, Indianapolis, Ind.) and for 7 minutes with 0.25% trypsin, followed by addition of 2.5% trypsin inhibitor. Cells were triturated in the presence of DNAase I inhibitor (50 U), centrifuged through 15% BSA (Sigma), resuspended in 1 ml Neurobasal medium (Sigma), 10 μM AraC, NGF (50 ng/ml) and GDNF (2 ng/ml) and plated onto poly-lysine (500 μg/ml) and laminin (5 mg/ml) coated 35 mm tissue culture dishes (Becton Dickinson) at 8000-9000 per well. Cultures were incubated at 37° C., 5% carbon dioxide. Recordings were made within 48 hours after plating.\nas §6"}, "[9]": {"assay": "Sciatic nerve injection, motor function score and placing reflex", "procedure": "as §1, §2"}, "[10]": {"assay": "Sciatic nerve injection, mechanical threshold (von Frey filaments)", "assay_type": "in vivo, rat", "settings": "QX-314 0.2%, 100 μL, capsaicin 0.5 μg/μL, 100 μL (for 30 min), or QX-314 then capsaicin, stiffest hair 57 g", "procedure": "as §1, §2"}, "[11]": {"tested_on": "voltage-dependent sodium channels", "assay": "Whole-cell voltage clamp of sodium current in large capsaicin-insensitive DRG neurons", "assay_type": "cell-based, rat", "settings": "10-minute application, n=10", "excerpt": "To test whether the ability of co-applied capsaicin and QX-314 to inhibit sodium current is selective for cells that express TRPV1 receptors, we also recorded from large DRG neurons (soma diameter >40 μm) (FIG. 1A, right). […] As for small diameter neurons, QX-314 applied alone had little or no effect on sodium current (current increased by 8±4% after a 10-minute application, n=10). Unlike small diameter neurons, capsaicin had no effect on sodium current in large diameter neurons (average increase by 3±2% after a 10-minute application, n=10).\nas §3"}, "sodium current": {"tested_on": "sodium current", "assay": "Sodium current with TRPA agonist mustard oil and QX-314 (Example 3)", "assay_type": "cell-based", "settings": "MO alone, 50 μM", "procedure": "MO alone reduces sodium current by 20-30% and reaches a plateau after approximately 3 minutes."}, "sodium channel": {"tested_on": "sodium channel", "assay": "Voltage clamp of sodium channel current in small dorsal root ganglion neurons with eugenol (Example 2)", "assay_type": "cell-based", "procedure": "Co-application of eugenol and QX-314 produces progressive block that can be complete after 7 minutes. Two examples are depicted, which are representative of 10 experiments with similar results.\nWe have also shown that eugenol (C10H12O2), an allyl chain-substituted guaiacol, 2-methoxy-4-(2-propenyl)phenol (active ingredient in oil of clove, and a non-pungent agonist of TRPV1 receptors) promotes entry of QX-314 into dorsal root ganglion neurons by activating TRPV1 channels. FIG. 5 depicts voltage clamp recordings of sodium channel current in small dorsal root ganglion neurons. […] Co-application of eugenol and QX-314 produces progressive block that can be complete after 7 minutes. Two examples are depicted, which are representative of 10 experiments with similar results. […] Thus, these experiments indicate that eugenol promotes entry of QX-314 into dorsal root ganglion neurons by activating TRPV1 channels."}}, "data": [{"smiles": "COc1cc(CNC(=O)CCCC/C=C/C(C)C)ccc1O", "note": "[capsaicin]", "values": [{"measurement": "effect on thermal response latency", "setting": "[1]", "result": "reduced"}, {"measurement": "inhibition of sodium current", "setting": "[2]; capsaicin alone, 1 μM for 1-10 minutes", "result": "31±9", "unit": "%"}, {"measurement": "effect on mechanical threshold for withdrawal response", "setting": "[3]", "result": "significantly reduced the mechanical threshold"}, {"measurement": "inward current elicited in large DRG neurons", "setting": "TRPV1 receptors [4]", "result": "did not elicit an inward current"}, {"measurement": "effect on thermal response latency / reaction to noxious radiant heat", "setting": "[5]", "result": "reduced as expected the thermal response latency"}, {"measurement": "number of flinches", "setting": "[6]", "result": "40±6"}, {"measurement": "effect on action potential", "setting": "[7]", "result": "reduced the action potential amplitude"}, {"measurement": "small neurons in which capsaicin produced inward current", "setting": "TRPV1 receptors [8]", "result": "25/25"}, {"measurement": "duration of prolonged inward current", "setting": "TRPV1 receptors [8]; small neurons", "result": "10 ± 3", "unit": "s"}, {"measurement": "mean motor score", "setting": "[9]; capsaicin alone 0.5 μg/μL, 100 μL, within 30 min after injection, scale 0-2", "result": "0.7±0.2"}, {"measurement": "animals with sustained flexion of the injected limb", "setting": "[9]; sciatic injection", "result": "4 out of the 6"}, {"measurement": "effect on placing reflex", "setting": "[9]; sciatic injection", "result": "unchanged"}, {"measurement": "effect on mechanical threshold", "setting": "[10]", "result": "reduced"}, {"measurement": "average increase of sodium current", "setting": "[11]; capsaicin alone", "result": "3±2", "unit": "%"}]}, {"smiles": "CCN(CC)CC(=O)Nc1c(C)cccc1C", "note": "[lidocaine]", "values": [{"measurement": "duration of complete loss of placing reflex", "setting": "[9]; rat, in vivo", "result": "at least 30 minutes"}, {"measurement": "effect on motor function", "setting": "[9]; rat, in vivo", "result": "complete paralysis of the lower limb"}, {"measurement": "effect on placing reflex", "setting": "[9]; rat, in vivo", "result": "complete loss of the tactile stimulus-evoked placing reflex"}, {"measurement": "time of full recovery of sensory and motor deficits", "setting": "[9]; rat, in vivo", "result": "≤ 45", "unit": "min"}, {"measurement": "mean motor score", "setting": "[9]; rat, in vivo, 30 min", "result": "1.67±0.2"}]}, {"smiles": "C=CCN=C=S", "note": "[MO]", "values": [{"measurement": "reduction of sodium current", "setting": "sodium current", "result": "20-30%"}, {"measurement": "time to plateau of sodium current reduction", "setting": "sodium current", "result": "approximately 3 minutes"}]}, {"smiles": "CC[N+](CC)(CC)CC(=O)Nc1c(C)cccc1C", "note": "[QX-314]", "values": [{"measurement": "effect on thermal response latency", "setting": "[1]", "result": "no significant effect"}, {"measurement": "decrease of sodium current", "setting": "[2]; bath application of 5 mM QX-314 alone, 5-minute application", "result": "3±0.5", "unit": "%"}, {"measurement": "effect on mechanical threshold for withdrawal response", "setting": "[3]", "result": "no significant effect"}, {"measurement": "effect on thermal response latency / reaction to noxious radiant heat", "setting": "[5]", "result": "transiently reduced the thermal response latency"}, {"measurement": "effect on action potential", "setting": "[7]", "result": "no effect"}, {"measurement": "effect of external QX-314 alone on sodium channels", "setting": "sodium channel; external application", "result": "no effect"}, {"measurement": "effect on motor function", "setting": "[9]; rat, in vivo", "result": "no effect on motor function"}, {"measurement": "effect on mechanical threshold", "setting": "[10]", "result": "no significant effect"}, {"measurement": "increase of sodium current", "setting": "[11]; QX-314 alone", "result": "8±4", "unit": "%"}]}, {"smiles": "C=CCc1ccc(O)c(OC)c1", "note": "[eugenol, 2-methoxy-4-(2-propenyl)phenol]", "values": [{"measurement": "inhibition of sodium current", "setting": "sodium channel; eugenol alone", "result": "10-20%"}]}]}
